Our source for the binding and Kd values is article PMC7038136 (2020).

As usually defined, the Kd is a measure of binding affinity in units of concentration. Low readings indicate a tighter complex, high ones a looser complex.

Each structure is given as a SMILES string.

Experiment [1] concerns sulfhydryl modified aptamer 31 (DNA, aptamer) ACGCATAGGGTGCGACCACATACGCCCCATGTATGTCCCTTGGTTGTGCCCTATGCGT
Description: electrochemical impedance spectroscopy. The note with it: K+ (0.5 M KCl), 10 mM K3[Fe(CN)6]/K4[Fe(CN)6], PBS pH 7.0, 30 min.

Experiment [2] has as its system Aptamer 281 (DNA, aptamer) ACGCATAGGGTGTGCATCAGCAGTACCAACGACGTTGTGGTGTGCTCATCCTATGCGT
Description: LSPR (OpenSPR), one-to-one kinetic model. The note with it: Na+ (29.2 g NaCl per 500 mL, about 1 M), Mg2+ (0.1 g MgCl2·6H2O per 500 mL, about 1 mM); immobilised compound; amine chip; phosphate buffer pH 7.0; aptamer as analyte, 2.5-40 nM.

Experiment [3] concerns Aptamer 123 (DNA, aptamer) ACGCATAGGGCAACCAGACCAGCCCCATCCCCATGTGACTTCTGTTTGGCCTATGCGT
The experiment is described as follows: LSPR (OpenSPR), one-to-one kinetic model. The note with it: Na+ (29.2 g NaCl per 500 mL, about 1 M), Mg2+ (0.1 g MgCl2·6H2O per 500 mL, about 1 mM); immobilised compound; amine chip; phosphate buffer pH 7.0; aptamer as analyte, 2.5-40 nM.

Experiment [4] has as its system Aptamer 203 (DNA, aptamer) ACGCATAGGGCAAGACAAACTGCGCCATTCAGCATGCTGTTCGGGTTGGCCTATGCGT
The experiment is described as follows: LSPR (OpenSPR), one-to-one kinetic model. The note with it: Na+ (29.2 g NaCl per 500 mL, about 1 M), Mg2+ (0.1 g MgCl2·6H2O per 500 mL, about 1 mM); immobilised compound; amine chip; phosphate buffer pH 7.0; aptamer as analyte, 2.5-40 nM.

The test system of experiment [5] is Aptamer 31 (DNA, aptamer) ACGCATAGGGTGCGACCACATACGCCCCATGTATGTCCCTTGGTTGTGCCCTATGCGT
The experiment is described as follows: LSPR (OpenSPR), one-to-one kinetic model. As to conditions: Na+ (29.2 g NaCl per 500 mL, about 1 M), Mg2+ (0.1 g MgCl2·6H2O per 500 mL, about 1 mM); immobilised compound; amine chip; phosphate buffer pH 7.0; aptamer as analyte, 2.5-40 nM.

For experiment [6] the test system is unchanged. Description: AuNP colorimetric assay (A620/A520 ratio > 1.1). As to conditions: 1.0 M NaCl added after incubation to aggregate AuNPs; 0.4 μM aptamer, 1 μg/mL DEHP, 30 min; room temperature.
Experiment [7] deals with Aptamer 123 (DNA, aptamer) ACGCATAGGGCAACCAGACCAGCCCCATCCCCATGTGACTTCTGTTTGGCCTATGCGT
Description: AuNP colorimetric assay (A620/A520 ratio > 1.1). As to conditions: 1.0 M NaCl added after incubation to aggregate AuNPs; 0.4 μM aptamer, 1 μg/mL DEHP, 30 min; room temperature.

For experiment [8], the system named is Aptamer 281 (DNA, aptamer) ACGCATAGGGTGTGCATCAGCAGTACCAACGACGTTGTGGTGTGCTCATCCTATGCGT
Description: AuNP colorimetric assay (A620/A520 ratio > 1.1). As to conditions: 1.0 M NaCl added after incubation to aggregate AuNPs; 0.4 μM aptamer, 1 μg/mL DEHP, 30 min; room temperature.

In experiment [9] the test system is Aptamer 203 (DNA, aptamer) ACGCATAGGGCAAGACAAACTGCGCCATTCAGCATGCTGTTCGGGTTGGCCTATGCGT
The experiment is described as follows: AuNP colorimetric assay (A620/A520 ratio > 1.1). The note with it: 1.0 M NaCl added after incubation to aggregate AuNPs; 0.4 μM aptamer, 1 μg/mL DEHP, 30 min; room temperature.

Take `COC(=O)c1ccccc1C(=O)OC`: the binding entry in experiment [1] (only 30.518 pg/mL tested) was “no”.

For `CCCCCCCCOC(=O)c1ccccc1C(=O)OCCCCCCCC`, in experiment [1] (only 30.518 pg/mL tested), the binding result is “no”.

Consider `CCCCOC(=O)c1ccccc1C(=O)OCc1ccccc1`, for which the binding entry in experiment [1] (only 30.518 pg/mL tested) is “no”.

As to `CCCCC(CC)COC(=O)c1ccc(OCCCC(=O)O)cc1C(=O)OCC(CC)CCCC` (stereo not drawn), the Kd in [2] came to 43 ± 0.7 nM; in [3], 5.33 ± 0.01 nM; in [4], 2.68 ± 0.2 nM; in [5], 2.26 ± 0.06 nM.

For the molecule `CCOC(=O)c1ccccc1C(=O)OCC`, the binding entry in [1] (only 30.518 pg/mL tested) is on record as “no”.

Take `CCCCOC(=O)c1ccccc1C(=O)OCCCC`: in experiment [1] (only 30.518 pg/mL tested), the binding result is “no”.

For the molecule `O=C(Oc1ccccc1)c1ccccc1C(=O)Oc1ccccc1`, the binding entry in experiment [1] (only 30.518 pg/mL tested) is “no”.

Regarding `CC(C)COC(=O)c1ccccc1C(=O)OCC(C)C`, the binding entry in experiment [1] (only 30.518 pg/mL tested) is given as “no”.

With `CCCCC(CC)COC(=O)c1ccccc1C(=O)OCC(CC)CCCC` (stereo not drawn), the binding entry in experiment [6], in experiment [7], in [1] (30.518 pg/mL), in experiment [8] and in experiment [9] was “yes” each time.

With `CCCCCCOC(=O)c1ccccc1C(=O)OCCCCCC`, in experiment [1] (only 30.518 pg/mL tested), the binding result was “no”.

In the case of `O=C(OC1CCCCC1)c1ccccc1C(=O)OC1CCCCC1`, the binding entry in experiment [1] (only 30.518 pg/mL tested) is “no”.
